ChEMBL document CHEMBL5604063, “ASAP - DENV-2 NS2B-NS3 protease fluorescence dose response” (2024)
Where “and” joins values, the source holds several entries; their conditions need not be identical. Equal values may be shown once.

Assays:
Genome polyprotein [1] = molecular target: T1, Genome polyprotein (dengue virus type 2, UniProt P29990); format: functional, Thailand/16681/1984
Genome polyprotein [2] = molecular target: T1, Genome polyprotein; format: functional, Thailand/16681/1984; remark: listed apart in the source

T1 sequence (P29990 1346-1475 limits assumed): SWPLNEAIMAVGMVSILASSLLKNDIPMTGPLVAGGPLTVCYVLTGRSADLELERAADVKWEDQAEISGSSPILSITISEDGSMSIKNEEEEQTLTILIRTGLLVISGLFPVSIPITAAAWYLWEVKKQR
T1 sequence (P29990 1476-2093 limits assumed): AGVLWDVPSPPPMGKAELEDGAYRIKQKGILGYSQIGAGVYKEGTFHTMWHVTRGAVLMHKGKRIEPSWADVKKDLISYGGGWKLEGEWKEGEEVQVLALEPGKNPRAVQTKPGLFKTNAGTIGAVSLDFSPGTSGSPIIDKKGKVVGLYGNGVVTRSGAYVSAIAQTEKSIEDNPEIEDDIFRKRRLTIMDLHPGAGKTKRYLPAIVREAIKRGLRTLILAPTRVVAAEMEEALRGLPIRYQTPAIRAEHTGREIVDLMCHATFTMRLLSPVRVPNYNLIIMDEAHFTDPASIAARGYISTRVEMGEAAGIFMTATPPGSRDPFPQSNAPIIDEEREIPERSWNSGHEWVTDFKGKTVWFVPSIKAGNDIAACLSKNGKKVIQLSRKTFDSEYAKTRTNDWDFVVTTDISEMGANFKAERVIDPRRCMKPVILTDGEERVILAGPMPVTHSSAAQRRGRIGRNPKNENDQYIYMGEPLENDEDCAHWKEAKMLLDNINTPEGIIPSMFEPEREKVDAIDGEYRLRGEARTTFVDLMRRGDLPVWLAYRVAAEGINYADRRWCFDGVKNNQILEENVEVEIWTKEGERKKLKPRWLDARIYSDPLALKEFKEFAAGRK

O=C(Nc1cc(Cl)cc([C@H](C#CCO)Nc2cccc(-c3nn[nH]n3)c2)c1)OCc1ccccc1
IC50 (Genome polyprotein [1]): 7.98 µM and 7.07 µM | IC50 (Genome polyprotein [2]): 13.6 µM and 12.9 µM

O=C(Nc1cc(Cl)cc(C(=O)NCC[C@H]2C[C@@H]2C(=O)O)c1)OCc1ccccc1
IC50 (Genome polyprotein [1]): > 100 µM | IC50 (Genome polyprotein [2]): > 99.5 µM

Cc1c(C(=O)Nc2cc(CCCN)ccc2F)cc(C2CC2)n1C
IC50 (Genome polyprotein [1]): > 100 µM | IC50 (Genome polyprotein [2]): > 99.5 µM

NCc1cccc(N[C@H](C#CCO)c2cc(Cl)cc(NC(=O)OCc3ccccc3)c2)c1
IC50 (Genome polyprotein [1]): > 100 µM | IC50 (Genome polyprotein [2]): 93.8 µM

Clc1cc(/C=C/c2cccc(-c3nn[nH]n3)c2)c2cn[nH]c2c1
IC50 (Genome polyprotein [1]): > 100 µM | IC50 (Genome polyprotein [2]): > 99.5 µM

COc1c(C(=O)N(C)C)cc(Cl)cc1S(=O)(=O)Nc1cccc(-c2nnn[nH]2)c1
IC50 (Genome polyprotein [1]): > 100 µM | IC50 (Genome polyprotein [2]): > 99.5 µM

N#C[C@H](Nc1cccc(-c2nn[nH]n2)c1)c1cc(Cl)cc(NC(=O)OCc2ccccc2)c1
IC50 (Genome polyprotein [1]): 8.74 µM and 6.62 µM and 11.4 µM and 8.37 µM | IC50 (Genome polyprotein [2]): 10.5 µM and 10.4 µM and 13.7 µM and 9.79 µM

O=C(Nc1ccc2c(c1)CNC2)c1cc(Cl)cc2[nH]ncc12
IC50 (Genome polyprotein [1]): > 100 µM | IC50 (Genome polyprotein [2]): 72.5 µM and 58.7 µM and 89.7 µM

C=CC[C@H](Nc1cccc(-c2nn[nH]n2)c1)c1cc(Cl)cc2[nH]ncc12
IC50 (Genome polyprotein [1]): 53.4 µM and 45 µM | IC50 (Genome polyprotein [2]): 92 µM

Cc1c(C(=O)Nc2ccc([C@@H](C)N)cc2)cc(C2CC2)n1C
IC50 (Genome polyprotein [1]): > 100 µM | IC50 (Genome polyprotein [2]): > 99.5 µM

CNC(=O)[C@H](Nc1cccc(-c2nn[nH]n2)c1)c1cc(Cl)cc(NC(=O)OCc2ccccc2)c1
IC50 (Genome polyprotein [1]): 28.2 µM and 21.1 µM | IC50 (Genome polyprotein [2]): 48.6 µM

NCc1ccc2c(c1)[C@H]1OCCC[C@H]1[C@H](c1cc(Cl)cc(NC(=O)OCc3ccccc3)c1)N2
IC50 (Genome polyprotein [1]): 33.9 µM and 45.8 µM | IC50 (Genome polyprotein [2]): 17.6 µM and 15.9 µM

CC[C@H](Cc1nnn[nH]1)c1ccc(NC(=O)c2cc(Cl)cc(-n3cccc3)c2)cc1
IC50 (Genome polyprotein [1]): 14.7 µM and 20.9 µM | IC50 (Genome polyprotein [2]): 26.4 µM

O=C(O)CCCc1ccc(NC(=O)c2cc(Cl)cc(NC(=O)OCc3ccccc3)c2)cc1
IC50 (Genome polyprotein [1]): 27.3 µM and 21.1 µM | IC50 (Genome polyprotein [2]): 43.3 µM

O=S(=O)(Nc1cccc(-c2nnn[nH]2)c1)c1cc(Cl)cc(-c2ccccc2)c1
IC50 (Genome polyprotein [1]): 16.4 µM and 28.4 µM | IC50 (Genome polyprotein [2]): 35.8 µM

O=C(Nc1cc(Cl)cc(C(=O)Nc2cncc(C(=O)O)c2)c1)OCc1ccccc1
IC50 (Genome polyprotein [1]): 32.1 µM and 27.5 µM | IC50 (Genome polyprotein [2]): 70 µM

NCCc1ccc([C@H]2C[C@@H]2c2cc(Cl)cc(NC(=O)OCc3ccccc3)c2)cc1
IC50 (Genome polyprotein [1]): 58.9 µM and 31.6 µM | IC50 (Genome polyprotein [2]): 7.22 µM and 8.69 µM

CNC(=O)[C@H](Nc1cccc(-c2nn[nH]n2)c1)c1cc(Cl)cc2[nH]ncc12
IC50 (Genome polyprotein [1]): > 100 µM | IC50 (Genome polyprotein [2]): > 99.5 µM

NCc1ccc2nc(-c3cc(Cl)cc(NC(=O)OCc4ccccc4)c3)c(CCCO)cc2c1
IC50 (Genome polyprotein [1]): > 100 µM | IC50 (Genome polyprotein [2]): 89.3 µM

Clc1cc(CCc2cccc(-c3nn[nH]n3)c2)c2cn[nH]c2c1
IC50 (Genome polyprotein [1]): 99.1 µM | IC50 (Genome polyprotein [2]): > 99.5 µM

Nc1cccc(NC(=O)c2cc(Cl)cc(NC(=O)OCc3ccccc3)c2)c1
IC50 (Genome polyprotein [1]): > 100 µM | IC50 (Genome polyprotein [2]): > 99.5 µM

O=C(Nc1cc(Cl)cc(-c2ccc3[nH]c(C(=O)O)cc3c2)c1)OCc1ccccc1
IC50 (Genome polyprotein [1]): 5.48 µM and 4.93 µM | IC50 (Genome polyprotein [2]): 6.65 µM and 5.47 µM

COC(=O)c1cc(Cl)cc([C@@H]2CN(Cc3ccccc3)C[C@H]2c2cccc(CN)c2)c1
IC50 (Genome polyprotein [1]): > 100 µM | IC50 (Genome polyprotein [2]): > 99.5 µM

O=S(=O)(Nc1cccc(-c2nnn[nH]2)c1)c1cc(Cl)cc2c1OCC2
IC50 (Genome polyprotein [1]): > 100 µM | IC50 (Genome polyprotein [2]): > 99.5 µM

O=C(Nc1ccc(-c2nnn[nH]2)cc1)c1cc(Cl)cc(C2CC2)c1
IC50 (Genome polyprotein [1]): 37.1 µM and 36 µM | IC50 (Genome polyprotein [2]): 69.5 µM

CCNC(=O)Nc1cc(Cl)cc(C(=O)Nc2cc(C)cc(CN)c2)c1
IC50 (Genome polyprotein [1]): > 100 µM | IC50 (Genome polyprotein [2]): > 99.5 µM

O=C(Nc1cc(Cl)cc(S(=O)(=O)Nc2cccc(-c3nn[nH]n3)c2)c1)OCc1ccccc1
IC50 (Genome polyprotein [1]): 11.5 µM and 8.87 µM | IC50 (Genome polyprotein [2]): 22.5 µM

NCc1cc(C(=O)O)cc([C@@H]2C[C@H]2c2cc(Cl)cc(NC(=O)OCc3ccccc3)c2)c1
IC50 (Genome polyprotein [1]): > 100 µM | IC50 (Genome polyprotein [2]): > 99.5 µM

CCc1nc(C)c(C(=O)Nc2cccc(-c3nnn[nH]3)c2)s1
IC50 (Genome polyprotein [1]): > 100 µM | IC50 (Genome polyprotein [2]): > 99.5 µM

C[C@H](C(=O)O)c1cccc(NC(=O)c2cc(Cl)cc(NC(=O)OCc3ccccc3)c2)c1
IC50 (Genome polyprotein [1]): 24.7 µM and 27.2 µM | IC50 (Genome polyprotein [2]): 58.7 µM

Cc1onc(C(=O)Nc2cccc(CN)c2)c1CN1CCCC1
IC50 (Genome polyprotein [1]): > 100 µM | IC50 (Genome polyprotein [2]): > 99.5 µM

C=CC[C@H](Nc1cc(Cl)cc(NC(=O)OCc2ccccc2)c1)c1cccc(-c2nn[nH]n2)c1
IC50 (Genome polyprotein [1]): 6.73 µM and 4.97 µM and 5.55 µM and 5.77 µM and 4.21 µM and 4.15 µM | IC50 (Genome polyprotein [2]): 7.41 µM and 7.43 µM and 7.49 µM and 7.65 µM

O=C(Nc1cc(Cl)cc([C@H]2C[C@@H]2c2cccc(C3CCNCC3)c2)c1)OCc1ccccc1
IC50 (Genome polyprotein [1]): 54.1 µM and 34.5 µM | IC50 (Genome polyprotein [2]): 6.78 µM and 6.9 µM

O=S(=O)(Nc1cccc(-c2nnn[nH]2)c1)c1cc(Cl)cc(C(F)(F)F)c1
IC50 (Genome polyprotein [1]): > 100 µM | IC50 (Genome polyprotein [2]): > 99.5 µM

CCNC(=O)Nc1cc(Cl)cc(C(=O)Nc2ccc3c(c2)CNCCO3)c1
IC50 (Genome polyprotein [1]): > 100 µM | IC50 (Genome polyprotein [2]): > 99.5 µM

C=CC[C@H](Nc1cc(CN)ccn1)c1cc(Cl)cc(NC(=O)OCc2ccccc2)c1
IC50 (Genome polyprotein [1]): > 100 µM | IC50 (Genome polyprotein [2]): > 99.5 µM

CNC(=O)[C@H](Nc1cccc(C(=O)O)c1)c1cc(Cl)cc2[nH]ncc12
IC50 (Genome polyprotein [1]): > 100 µM | IC50 (Genome polyprotein [2]): > 99.5 µM

CC[C@H](Cc1nn[nH]n1)c1ccc(N[C@H](C(=O)NC)c2cc(Cl)cc(NC(=O)OCc3ccccc3)c2)cc1
IC50 (Genome polyprotein [1]): 15.4 µM and 25.1 µM | IC50 (Genome polyprotein [2]): 29.2 µM
